The values below come from patent US12263144B2, “Methods of treating IgA nephropathy with thiol-containing molecules” (Accubit LLC—Biotechnology, priority 2020, dated 2025).

Assay [1] deals with rat poly-rIgA. In words: Nonreducing SDS-PAGE analysis of rat poly-rIgA after pretreatment. The assay is classed as biochemical. The following applies: cysteamine 0 to 10 mM; TCEP 10 mM; untreated poly-IgA >250 kDa. As for the experimental part:
Proteins in sample buffer (Bio-Rad Laboratories, Hercules, CA, USA) with or without TCEP (for reducing or nonreducing condition, respectively) were resolved by 4-12% SDS-PAGE (Bio-Rad Laboratories). IgA bands were subsequently visualized either by staining with GelCode Blue (Thermo Fisher Scientific), or by Western blotting on PVDF membrane. For Western blotting, 5% non-fat milk was used in blocking for one hour at room temperature. The membrane was then incubated with mouse anti-Histag antibody (Thermo Scientific), or HRP-conjugated goat anti-rat IgA α-chain antibody (Cat. ab97185, Abcam, UK), or goat anti-human IgA HRP antibody (Cat: 2050-05, SouthernBiotech) for detecting rat or human IgA (Fc), respectively. The membrane was developed using the Clarity™ ECL substrate (Bio-Rad Laboratories, CA, USA).
To further ascertain the mechanism-of-action of cysteamine in targeting disulfides, nonreducing SDS-PAGE analysis was performed of rat poly-rIgA (FIG. 5, part D). The samples were pretreated with 0 to 10 mM cysteamine, or 10 mM TCEP as positive control. As expected, poly-IgA appeared as >250 kDa bands on SDS-PAGE. Dose-dependent response of poly-rIgA to cysteamine was evident, with majority of the protein running at ˜64 kDa of disaggregated monomers.

Assay [2] has as its target T1, human IgA1 (poly-IgA1) (Homo sapiens, UniProt P01876).
T1 construct: human IgA1 whole molecule was purified from pooled plasma of IgA nephropathy patients; from tissue
In words: SEC of native human IgA1 treated ex vivo. The assay is classed as biochemical. The following applies: IgA1 from pooled plasma of IgA nephropathy patients, different concentrations, FIG. 5 C. The source says: IgA1 from IgA nephropathy patient sera was purified by Jacalin (Thermo Scientific, USA)-directed affinity chromatography. Poly-IgA1 contents were further enriched via running Superdex 200 Increase gel filtration molecular sieve (GE Biosciences) and collecting high-molecular weight fractions from an AKTA protein purification system (GE Biosciences). Human serum from healthy donors was purchased from Sigma-Aldrich and total IgA1 was also purified by running Jacalin-directed chromatography. Purified total IgA1 was used for injecting mice.
The overall complex size of IgA aggregates was determined either by size-exclusion chromatography (SEC: Superdex 200 Increase 10/300 by GL Cytiva), or by SDS-PAGE. For evaluating the involvement of intermolecular disulfide connectivity in IgA complexes, IgA samples were treated with either reducing agents, such as DTT, TCEP or reduced glutathione (Sigma), or interventional drugs, such as cysteamine (Sigma), WR-1065 (Sigma) and N-Acetyl-L-cysteine (VWR Chemicals) in phosphate-buffered saline (PBS) pH7.4. Before running on SEC, samples were treated with the drugs at indicated concentrations at 37° C. for one hour.
In the meantime, the SEC column was also equilibrated with PBS supplemented with the reducing agent at the same concentration. For running SEC, 100 μL of the recombinant IgA (concentration varies between 1 mg/mL and 8 mg/mL) or purified native human IgA1 (˜1 mg/mL) was loaded to the column and UV absorption was recorded following elution. Recombinant IgA typically formed two elution peaks: a minor peak of ˜800 kDa poly-rIgA followed by a major peak of ˜170 kDa of monomeric rIgA. The ratios between poly-rIgA and mono-rIgA were calculated as between the corresponding areas under the curve (AUC), and the treatment effect of the thiol agents was judged by the reduction of the poly-rIgA level with a compensatory increase of the mono-rIgA content.
In addition, human IgA1 whole molecule was purified from pooled plasma of IgA nephropathy patients and subjected the sample to different concentrations of cysteamine (FIG. 5, part C). […]

T1 sequence (P01876 1-353 isoform P01876-1): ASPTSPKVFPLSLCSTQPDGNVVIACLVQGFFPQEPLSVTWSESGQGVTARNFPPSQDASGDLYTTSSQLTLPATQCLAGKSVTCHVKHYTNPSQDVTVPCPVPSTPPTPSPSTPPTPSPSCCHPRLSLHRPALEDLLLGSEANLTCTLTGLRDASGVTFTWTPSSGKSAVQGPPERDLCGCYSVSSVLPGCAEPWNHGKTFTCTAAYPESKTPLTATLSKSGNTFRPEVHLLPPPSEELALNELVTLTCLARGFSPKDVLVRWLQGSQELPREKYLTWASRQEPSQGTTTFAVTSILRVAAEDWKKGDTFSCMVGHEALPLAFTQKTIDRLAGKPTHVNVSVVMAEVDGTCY

Regarding `NCCS` [cysteamine], the “molecular weight of protein band after pretreatment (nonreducing SDS-PAGE)” value in assay [1] was ~64 kDa. In addition, the “poly-IgA1 amount (SEC)” value in assay [2] is recorded as “reduced the amounts of poly-IgA1”.
